For test [1], the target named is human RORγt ligand binding domain (RORγt LBD) (Homo sapiens (Human), UniProt P51449). The experiment in a line: RORγt ThermoFluor assay. An excerpt:
ThermoFluor® is a fluorescence based assay that estimates ligand binding affinities by measuring the effect of a ligand on protein thermal stability (Pantoliano, M. W., Petrella, E. C., Kwasnoski, J. D., Lobanov, V. S., Myslik, J., Graf, E., Carver, T., Asel, E., Springer, B. A., Lane, P., and Salemme, F. R. (2001) High-density miniaturized thermal shift assays as a general strategy for drug discovery. J Biomol Screen 6, 429-40, and Matulis, D., Kranz, J. K., Salemme, F. R., and Todd, M. J. (2005) Thermodynamic stability of carbonic anhydrase: measurements of binding affinity and stoichiometry using ThermoFluor. Biochemistry 44, 5258-66). This approach is applicable to a wide variety of systems, and rigorous in theoretical interpretation through quantitation of equilibrium binding constants (KD).
The shift in the melting point described as a ΔTm is proportional to the concentration and affinity of the ligand.
RORγt ThermoFluor® Assay Construct
Nucleotides 850-1635 (SEQ ID NO:2) coding for the wild type human RORγt ligand binding domain (RORγt LBD) were cloned into the pHIS 1 vector, a modified pET E. coli expression vector (Accelagen, San Diego), containing an in-frame N-terminal His-tag and a TurboTEV protease cleavage site (ENLYFQG, SEQ ID NO:3) upstream of the cloned insert sequence. The amino acid sequence for the RORγt construct used in the Thermofluor® assay is shown as SEQ ID NO:4.
ThermoFluor® experiments were carried out using instruments owned by Janssen Research and Development, L.L.C. through its acquisition of 3-Dimensional Pharmaceuticals, Inc. 1,8-ANS (Invitrogen) was used as a fluorescent dye. Protein and compound solutions are dispensed into black 384-well polypropylene PCR microplates (Abgene) and overlayed with silicone oil (1 μL, Fluka, type DC 200) to prevent evaporation.
Bar-coded assay plates are robotically loaded onto a thermostatically controlled PCR-type thermal block and then heated at a typical ramp-rate of 1° C./min for all experiments. Fluorescence was measured by continuous illumination with UV light (Hamamatsu LC6) supplied via fiber optic and filtered through a band-pass filter (380-400 nm; >6 OD cutoff). Fluorescence emission of the entire 384-well plate was detected by measuring light intensity using a CCD camera (Sensys, Roper Scientific) filtered to detect 500±25 nm, resulting in simultaneous and independent readings of all 384 wells. Images were collected at each temperature, and the sum of the pixel intensity in a given area of the assay plate was recorded versus temperature. Reference wells contained RORγt without compounds, and the assay conditions were as follows: • 0.065 mg/mL RORγt • 60 μM 1,8-ANS • 100 mM Hepes, pH 7.0 • 10 mM NaCl • 2.5 mM GSH • 0.002% Tween-20
Project compounds were arranged in a pre-dosed mother plate (Greiner Bio-one) wherein compounds are serially diluted in 100% DMSO by 1:2 from a high concentration of 10 mM over 12 columns within a series (column 12 is a reference well containing DMSO, no compound). The compounds were robotically dispensed directly into assay plates (1×=46 nL) using a Hummingbird capillary liquid handling instrument (Digilab). Following compound dispense, protein and dye in buffer was added to achieve the final assay volume of 3 μL, followed by 1 μL of silicone oil.
The binding affinity was estimated as described previously (Matulis, D., Kranz, J. K., Salemme, F. R., and Todd, M. J. (2005) Thermodynamic stability of carbonic anhydrase: measurements of binding affinity and stoichiometry using ThermoFluor®. Biochemistry 44, 5258-66) using the following thermodynamic parameters of protein unfolding: […]
Background: Differential scanning fluorimetry follows unfolding on heating by fluorescence.

In another test the target is full-length human RORγt (Homo sapiens (Human), UniProt P51449). In words: RORγt (full-length human) reporter assay, conditions A or B. The following applies: for IC50: HEK293T cells, read-out: RORγt (FL) Reporter Assay A or B, IC50; for inhibition at 1 µM: 1 μM compound concentration (***). The class given is cell-based. An excerpt:
RORγt (Full-Length Human) Reporter Assay:
Cells used in this assay were transiently co-transfected with three different plasmids, one expressing the GAL4-DNA binding domain (DBD)-RORγt fusion protein under control of a CMV promoter (NH2-Gal4-DBD:RORC—COOH in pCMV-BD, Stratagene #211342), and two reporter plasmids—the firefly luciferase reporter under control of a GAL4 promoter (pFR-Luc 2×GAL4) and Renilla luciferase reporter under control of CMV promoter (pRL-CMV, Promega #E2261). […] HEK293T cells were plated at 35,000 per well in 96-well plate in medium of DMEM with 10% FBS. After 18-22 hours incubation, the transfection was carried out by using a PEI solution with 170.5 ng total DNA/well (50 ng pCMV-BD-ROR plus 20 ng of pFR-Luc reporter and 0.5 ng of pRL-CMV reporter plus 100 ng Carrier DNA (Clontech #630440) for each well). 4-6 hours after transfection, cells were treated with compounds for overnight in the medium with final concentration of FBS 1.3% and DMSO 0.1%. After overnight (16 to 20 hours) incubation, media were removed and cells were lysed with […] Glo Lysis Buffer (Promega) for 10-15 minutes followed by 10 minute incubation with 50 μL Dual Glo reagent (Promega) at room temperature. Firefly luciferase luminescence was measured using a BMG Pherastar plate reader. To each well, 50 μL Stop and Glo reagent was added and incubated for 10 minutes at room temperature. Renilla luminescence was measured using a BMG Pherastar plate reader. To calculate the effect of compounds on RORγt activity, firefly values were normalized against values of DMSO only and values of reference compound at saturating concentration, then further normalized against Renilla signals. IC50s were generated by plotting final Renilla normalized data against compound concentration and percent inhibition was calculated against DMSO control.
Cells used in this assay were transiently co-transfected with three different plasmids, one expressing the GAL4-DNA binding domain (DBD)-RORγt fusion protein under control of a CMV promoter (NH2-Gal4-DBD:RORC—COOH in pCMV-BD, Stratagene #211342), and two reporter plasmids—the firefly luciferase reporter under control of a GAL4 promoter (pFR-Luc 2×GAL4) and Renilla luciferase reporter under control of CMV promoter (pRL-CMV, Promega #E2261). […] HEK293T cells were plated at 8750 cells per well in 384-well plate in medium of DMEM with 10% FBS. After 18-22 hours incubation, the transfection was carried out by using a PEI solution with 42.6 ng total DNA/well (12.5 ng pCMV-BD-ROR plus 5 ng of pFR-Luc reporter and 0.125 ng of pRL-CMV reporter plus 25 ng Carrier DNA (Clontech #630440) for each well). 4-6 hours after transfection, cells were treated with compounds for overnight in the medium with final concentration of FBS 1.3% and DMSO 0.1%. After overnight (16 to 20 hours) incubation, media were removed and cells were lysed with 20 μL Glo Lysis Buffer (Promega) for 10-15 minutes followed by 10 minute incubation with 20 μL Dual Glo reagent (Promega) at room temperature. Firefly luciferase luminescence was measured using a BMG Pherastar plate reader. To each well, 20 μL Stop and Glo reagent was added and incubated for 10 minutes at room temperature. Renilla luminescence was measured using a BMG Pherastar plate reader. To calculate the effect of compounds on RORγt activity, firefly values were normalized against values of DMSO only and values of reference compound at saturating concentration, then further normalized against Renilla signals. IC50s were generated by plotting final Renilla normalized data against compound concentration and percent inhibition was calculated against DMSO control.

Where [2] appears, read: read-out: RORγt (FL) Reporter Assay A or B, % inhibition, 3 μM compound concentration (*).
Setting [3] is: 3 μM compound concentration (*), read-out: RORγt (FL) Reporter Assay A or B, % inhibition.
[4] abbreviates: read-out: RORγt (FL) Reporter Assay A or B, % inhibition.

Where two headings read alike, the source gives them in different places.

As usually defined, the Kd is the concentration at which binding is half-saturated. Read a high Kd as lower affinity. Broadly, the IC50 is the concentration that inhibits the measured activity by half.

full-length human RORγt, sequence (P51449 other isoform, or with tags, fused parts or gaps): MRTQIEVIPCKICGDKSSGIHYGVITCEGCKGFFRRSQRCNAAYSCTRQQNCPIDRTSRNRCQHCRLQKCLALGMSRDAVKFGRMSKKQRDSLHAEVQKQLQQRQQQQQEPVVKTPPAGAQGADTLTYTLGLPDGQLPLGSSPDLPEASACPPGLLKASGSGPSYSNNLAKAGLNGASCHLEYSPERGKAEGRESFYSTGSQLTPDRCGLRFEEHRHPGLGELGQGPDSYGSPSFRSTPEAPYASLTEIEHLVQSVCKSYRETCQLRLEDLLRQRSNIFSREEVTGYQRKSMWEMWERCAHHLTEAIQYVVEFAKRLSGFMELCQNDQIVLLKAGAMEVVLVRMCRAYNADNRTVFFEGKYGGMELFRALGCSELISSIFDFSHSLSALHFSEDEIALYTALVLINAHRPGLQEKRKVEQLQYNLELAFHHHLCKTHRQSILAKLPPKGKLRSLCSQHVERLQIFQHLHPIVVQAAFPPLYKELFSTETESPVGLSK
human RORγt ligand binding domain (RORγt LBD), sequence (P51449 other isoform, or with tags, fused parts or gaps): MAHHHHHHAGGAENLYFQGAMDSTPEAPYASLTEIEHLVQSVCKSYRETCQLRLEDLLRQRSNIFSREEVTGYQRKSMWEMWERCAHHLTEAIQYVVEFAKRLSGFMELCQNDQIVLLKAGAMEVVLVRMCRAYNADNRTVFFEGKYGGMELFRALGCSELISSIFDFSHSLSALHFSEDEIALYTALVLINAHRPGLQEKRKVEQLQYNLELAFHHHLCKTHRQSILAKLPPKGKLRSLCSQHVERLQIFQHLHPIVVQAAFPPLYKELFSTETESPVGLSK

In test [1], `CCc1nc(C(=O)NC[C@H]2CC[C@H](S(C)(=O)=O)C[C@@H]2O)c(Cl)n1-c1ncc(CC(C)(C)C(F)(F)F)cc1OC(F)F` (single isomer, unassigned) [Example 58, 5-Chloro-1-(3-(difluoromethoxy)-5-(3,3,3-trifluoro-2,2-dimethylpropyl)pyridin-2-yl)-2-ethyl-N-(((1R*,2S*,4S*)-2-hydroxy-4-(methylsulfonyl)cyclohexyl)methyl)-1H-imidazole-4-carboxamide] yielded a Kd of 12 nM. At full-length human RORγt, the IC50 is 160 nM. In addition, the inhibition at 3 µM at full-length human RORγt (setting [2]) is 121%.

Consider `CCc1nc(C(=O)NC[C@@H]2CC[C@@H](S(C)(=O)=O)C[C@H]2O)c(Cl)n1-c1ncc(CC(C)(C)C(F)(F)F)cc1OC(F)F` (single isomer, unassigned) [Example 59, 5-Chloro-1-(3-(difluoromethoxy)-5-(3,3,3-trifluoro-2,2-dimethylpropyl)pyridin-2-yl)-2-ethyl-N-(((1S*,2R*,4R*)-2-hydroxy-4-(methylsulfonyl)cyclohexyl)methyl)-1H-imidazole-4-carboxamide], for which the Kd in test [1] is 12 nM. Moreover, the IC50 on full-length human RORγt was 65 nM. Further, the inhibition at 3 µM at full-length human RORγt (setting [2]) came out at 104%.

Compound `CCc1nc(C(=O)NC[C@]2(O)CC[C@@H](S(C)(=O)=O)CC2)c(Cl)n1-c1ncc(C[C@H](C)C(F)(F)F)cc1OC(F)F` (single isomer, unassigned) [Example 71, 5-Chloro-1-(3-(difluoromethoxy)-5-((S*)-3,3,3-trifluoro-2-methylpropyl)pyridin-2-yl)-2-ethyl-N-(((1s,4R)-1-hydroxy-4-(methylsulfonyl)cyclohexyl)methyl)-1H-imidazole-4-carboxamide] registered a Kd in test [1] of 28 nM. Moreover, the inhibition at 3 µM at full-length human RORγt (setting [3]) was 90%. Besides, the IC50 at full-length human RORγt turned out to be 160 nM.

`CCc1nc(C(=O)NC[C@H]2CC[C@H](S(C)(=O)=O)CC2)c(Cl)n1-c1ncc(C[C@H](C)C(F)(F)F)cc1OC(F)F` (single isomer, unassigned) [Example 72, 5-Chloro-1-(3-(difluoromethoxy)-5-((S*)-3,3,3-trifluoro-2-methylpropyl)pyridin-2-yl)-2-ethyl-N-(((1r,4S)-4-(methylsulfonyl)cyclohexyl)methyl)-1H-imidazole-4-carboxamide] displayed a Kd in test [1] of 9.8 nM. Besides, the inhibition at 3 µM on full-length human RORγt (setting [3]) turned out to be 98%. The IC50 at full-length human RORγt amounted to 75 nM.

For `CCc1nc(C(=O)NC[C@H]2CC[C@H](S(C)(=O)=O)CC2)c(C)n1-c1ncc(C[C@H](C)C(F)(F)F)cc1OC(F)F` (single isomer, unassigned) [Example 73, 1-(3-(Difluoromethoxy)-5-((S*)-3,3,3-trifluoro-2-methylpropyl)pyridin-2-yl)-2-ethyl-5-methyl-N-(((1r,4S)-4-(methylsulfonyl)cyclohexyl)methyl)-1H-imidazole-4-carboxamide], the affinity in test [1], expressed as Kd, was 38 nM. The inhibition at 1 µM on full-length human RORγt (setting [4]) was determined as 80%. Besides, at full-length human RORγt, the IC50 came to 110 nM.

The compound `CCc1nc(C(=O)NC[C@H]2CC[C@H](S(C)(=O)=O)CC2)c(Cl)n1-c1ncc(C[C@@H](C)C(F)(F)F)cc1OC(F)F` (single isomer, unassigned) [Example 78, 5-Chloro-1-(3-(difluoromethoxy)-5-((R*)-3,3,3-trifluoro-2-methylpropyl)pyridin-2-yl)-2-ethyl-N-(((1r,4R)-4-(methylsulfonyl)cyclohexyl)methyl)-1H-imidazole-4-carboxamide] gave a dissociation constant (Kd) in test [1] of 7 nM. Besides, at full-length human RORγt (setting [4]), the inhibition at 1 µM came to 94%. The IC50 on full-length human RORγt came out at 96 nM.

`CCc1nc(C(=O)NC[C@]2(O)CC[C@@H](S(C)(=O)=O)CC2)c(Cl)n1-c1ncc(C[C@@H](C)C(F)(F)F)cc1OC(F)F` (single isomer, unassigned) [Example 79, 5-Chloro-1-(3-(difluoromethoxy)-5-((R*)-3,3,3-trifluoro-2-methylpropyl)pyridin-2-yl)-2-ethyl-N-(((1s,4S)-1-hydroxy-4-(methylsulfonyl)cyclohexyl)methyl)-1H-imidazole-4-carboxamide] gave a Kd in test [1] of 26 nM. In addition, the inhibition at 3 µM at full-length human RORγt (setting [3]) was 84%. The IC50 on full-length human RORγt is 220 nM.

On to `CCc1nc(C(=O)NC[C@H]2CC[C@H](S(C)(=O)=O)CC2)c(C)n1-c1ncc(C[C@@H](C)C(F)(F)F)cc1OC(F)F` (single isomer, unassigned) [Example 80, 1-(3-(Difluoromethoxy)-5-((R*)-3,3,3-trifluoro-2-methylpropyl)pyridin-2-yl)-2-ethyl-5-methyl-N-(((1r,4R)-4-(methylsulfonyl)cyclohexyl)methyl)-1H-imidazole-4-carboxamide], for which the affinity in test [1], expressed as Kd, was 58 nM. Moreover, the inhibition at 3 µM at full-length human RORγt (setting [3]) turned out to be 113%. Besides, at full-length human RORγt, the IC50 was 54 nM.

The values are drawn from patent US11345666B2, “Phenyl and pyridinyl substituted imidazoles as modulators of RORγT” (Janssen Pharmaceutica NV, priority 2018, dated 2022).
